# Laboratory results reported in patent publication US12162856B2, “β-catenin and B-cell lymphoma 9 (BCL9) inhibitors” (H. LEE MOFFITT CANCER CENTER AND RESEARCH INSTITUTE, INC., priority 2019, dated 2024).
# Where a name gives a salt, the structure may show the parent alone. Read-outs that look alike come from different tables or passages of the source.
# What was measured:
# β-catenin/BCL9 PPI = target: T1, β-catenin/BCL9 PPI (Homo sapiens, UniProt P35222); experiment: AlphaScreen competitive inhibition assay of the β-catenin/BCL9 PPI; assay type: binding; details: mean ± SD, triplicate, Ki derived from IC50 (Nikolovska-Coleska equation)
# T1 construct: Wild-type full-length β-catenin were cloned into a pET-28b vector; made in house; host or cells: Escherichia coli BL21 DE3 (β-catenin); BCL9 peptide chemically synthesized
# T1 sequence (P35222 1-781): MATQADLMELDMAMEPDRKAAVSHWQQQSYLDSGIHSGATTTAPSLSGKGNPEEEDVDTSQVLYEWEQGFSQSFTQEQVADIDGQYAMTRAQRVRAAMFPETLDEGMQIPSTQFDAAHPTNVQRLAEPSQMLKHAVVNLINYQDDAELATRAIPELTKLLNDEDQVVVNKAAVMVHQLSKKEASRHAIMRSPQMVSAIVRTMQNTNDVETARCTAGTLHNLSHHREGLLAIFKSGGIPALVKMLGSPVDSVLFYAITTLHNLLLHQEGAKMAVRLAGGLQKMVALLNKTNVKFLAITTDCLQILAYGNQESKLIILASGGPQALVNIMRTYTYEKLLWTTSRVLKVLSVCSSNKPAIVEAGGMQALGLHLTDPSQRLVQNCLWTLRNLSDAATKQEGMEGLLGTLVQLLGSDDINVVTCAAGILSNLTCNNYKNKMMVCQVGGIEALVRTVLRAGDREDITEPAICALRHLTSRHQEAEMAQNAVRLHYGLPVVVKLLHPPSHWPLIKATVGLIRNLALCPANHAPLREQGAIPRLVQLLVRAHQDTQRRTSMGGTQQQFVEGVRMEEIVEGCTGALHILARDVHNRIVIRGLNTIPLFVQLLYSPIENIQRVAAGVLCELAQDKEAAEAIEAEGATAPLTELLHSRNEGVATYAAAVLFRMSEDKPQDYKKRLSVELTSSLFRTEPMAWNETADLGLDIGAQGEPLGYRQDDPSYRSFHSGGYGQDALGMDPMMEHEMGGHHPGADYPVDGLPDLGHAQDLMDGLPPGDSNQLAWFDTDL
# Procedure: Protein expression and purification. Wild-type full-length β-catenin were cloned into a pET-28b vector carrying a C-terminal 6×histidine (Novagen), and transformed into Escherichia coli BL21 DE3 (Novagen). Cells were cultured in LB medium with 30 μg/mL kanamycin until the OD600 was approximately 0.8, and then protein expression was induced with 400 μM of IPTG at 20° C. overnight. Cells were lysed by sonication. The proteins were purified by Ni-NTA affinity chromatography (30210, Qiagen) and dialyzed against a buffer containing 20 mM of Tris (pH 8.5), 100 mM NaCl, 10% glycerol, and 3 mM DTT. The purity of β-eaten in was greater than 95% as determined by SDS-PAGE gel analysis. Native non-denaturing gel electrophoresis was performed to confirm the homogeneity of the purified proteins. Thermal-shift assay was performed on an iCycler iQ Real Time Detection System (Bio-Rad) to monitor protein stability and detect protein aggregation. Protein unfolding was evaluated through measuring the S15 fluorescence changes of fluorescent dye Sypro Orange when interacting with wild-type or mutant β-catenin proteins. A temperature increment of […] was applied. CD spectra were measured on a J-815 spectropolarimeter (Jasco). All spectra were recorded at room temperature, and the baseline control containing all of the substances except protein. Sample were prepared at a concentration around 1-5 μM in a buffer of 10 mM potassium phosphate and 100 mM potassium fluoride at pH 7.0 to ensure that the transmission of light through the sample was not restricted. All proteins were stable and no aggregation was observed under storage or assay conditions. Proteins were aliquoted and stored at −80° C.
# BCL9 peptide synthesis and purification. Human BCL9 (residues 350-375), and […] biotinylated human BCL9 (residues 350-375) were synthesized. All synthesized peptides were purified by HPLC with purity >95%. The structures were validated by LC/MS. The sequences are as follows (Ahx, 6-aminohexanoic acid).
# AlphaScreen competitive inhibition assays. For the competitive inhibition assays of the β-catenin/BCL9 PPI, the negative control (equivalent to 0% inhibition) refers to 5.0 nM of biotinylated BCL9, 40 nM of His6-tagged β-catenin, and 10 μg/mL of donor and acceptor beads in a final volume of 25 μL assay buffer, but no tested inhibitor present. The positive control (equivalent to 100% inhibition) refers to 5.0 nM of biotinylated BCL9 and […] of donor and acceptor beads in a final volume of 25 μL assay buffer.
# For the β-catenin/BCL9 assay, 5 nM of biotinylated BCL9 and 40 nM of His6-tagged β-catenin were incubated in assay buffer at 4° C. for 30 min. Different concentrations of the tested inhibitor were added and incubated in 20 μL assay buffer at 4° C. for another 1 h. All of the above assay plates were covered and gently mixed on an orbital shaker. The donor and acceptor beads were then added to the plates to a final concentration of 10 μg/mL in 25 μL assay buffer. The mixture was incubated for 1 h at 4° C. before detection. The IC50 value was determined by nonlinear least-square analysis of GraphPad Prism 5.0. The Ki values were derived from the IC50 values using a method reported by Nikolovska-Coleska et al (Nikolovska-Coleska, Z.; Wang, R.; Fang, X.; Pan, H.; Tomita, Y.; Li, P.; Roller, P. P.; Krajewski, K.; Saito, N. G.; Stuckey, J. A.; Wang, S. Development and optimization of a binding assay for the XIAP BIR3 domain using fluorescence polarization. Anal. Biochem. 2004, 332, 261-273.). The assays were conducted under the conditions required by Nikolovska-Coleska et al.'s equation for determining the Ki values. All of the experiments were performed in triplicate. The results were expressed as mean±standard deviation.
# Wnt target genes = details: reported in the literature; cited from earlier work
# [1] = target: T2, β-catenin/BCL9 interaction (Homo sapiens, UniProt P35222); details: reported in the literature; cited from earlier work
# T2 sequence (P35222 1-781): T1 sequence (P35222 1-781)
"Ki (β-catenin/BCL9 PPI; experiment 3, read-out: Ki (μM ± SD) experiment 3)","Ki (β-catenin/BCL9 PPI; experiment 4, read-out: Ki (μM ± SD) experiment 4)",Compound,suppression of Wnt target gene / β-catenin-dependent transcription (Wnt target genes),disruption of the β-catenin/BCL9 interaction [1]
330 ± 43 µM,200 ± 20 µM,"CC(=O)Nc1cc(F)cc(C(=O)N2CCN(C(=O)c3ccc(O[C@H]4CCNC4)c(C4CCCCC4)c3)[C@@H](CC(C)C)C2)c1 [Compound 16, N-(3-((S)-4-(3-Cyclohexyl-4-(((S)-pyrrolidin-3-yl)oxy)benzoyl)-3-isobutylpiperazine-1-carbonyl)-5-fluorophenyl)acetamide trifluoroacetate]",,
,,"CC(C)c1cc2c(c(O)c1O)[C@@]1(C(=O)O)CCCC(C)(C)[C@@H]1CC2 [camosic acid, Carnosic acid]",inhibit β-catenin-dependent transcription,can disrupt the β-catenin/BCL9 interaction
